The values below come from patent US20210121440A1, “ACNE TREATMENT” (priority 2003, published 2021).

Series [1] has as its system total lipids and pro-inflammatory lipid fractions in the sebum. The series can be described thus: Lipids and lipid fractions in the sebum by chromatography. It counts as in vivo, human. The conditions noted are these: 12th week of treatment, 4×600 mg/d p.o. Here is the method:
(§1) For treating the inflammatory acne 10 patients having acne papulopustolosa (m:f 6:4, age 19±5 years) were treated orally with a selective 5-lipoxygenase inhibitor, namely with (±)-1-1.benzo[b]thien—2-ylethyl)-1-hydroxyurea (Zileuton) 4×600 mg/d p.o. for a period of three months. The number of lesions and the general degree of severity index according to Allen and […] (Allen B S, Smith J G: Various parameters for grading acne. Arch Dermatol. 1982; 118: 23-25) were clinically judged. Moreover, the surface lipids using Sebumeter® and the liver enzymes in the serum were determined at the beginning of the study, in the 2nd, 4th, 8th and 12th weeks of treatment and 2 weeks after completion of the therapy. The LTB4 detection in the blood by radio-immuno-assay and the lipid fractions in the serum by chromatography were examined at the beginning and in the 12th week of treatment. The patients were photographed at the beginning and at the end of the treatment. The degree of severity index of acne decreased continuously and dependent on the time (41±28% of the initial value in the 12th week of treatment; p<0.05). […] The degree of clinical improvement strongly correlated with the reduction of the total lipids in the sebum (p=0.0009, r^2=0.81) and the free fatty acid (p=0.0003, r^2=0.82). […] To sum up, thus first indirect proofs could be furnished for a genuine inflammatory etiology of acne.

The test system of series [2] is patients having acne papulopustolosa. The series can be described thus: Clinical judgement of number of lesions and degree of severity index (Allen and Smith) in acne patients treated orally. It counts as in vivo, human. Here is the method: as §1
Series [3] has the same test system. As to the kind of experiment: Side-effects in treated acne patients. It is filed as in vivo, human. The conditions noted are these: 4×600 mg/d p.o. for three months; 10 patients. On the procedure: as §1, with “of acne. […]” for “of acne.”
The subject of series [4] is surface lipids. The series can be described thus: Surface lipids using Sebumeter. It is filed as in vivo, human. The note with it: 4×600 mg/d p.o. for three months. On the procedure: as §1
For series [5], the system named is LTB4 in the blood. The series can be described thus: LTB4 detection in the blood by radio-immuno-assay. It is filed as in vivo, human. The note with it: beginning vs 12th week of treatment; 4×600 mg/d p.o. Here is the method: as §1
Series [6] has as its system patients. The note with it: oral administration; especially older patients having an impaired renal function; cited from earlier work.

In the case of `CC(c1cc2ccccc2s1)N(O)C(N)=O` (racemic) [Zileuton, (±)-1-(1-benzo[b]thien-2-ylethyl)-1-hydroxy-urea], in series [1], the “decrease of lipoperoxides in the sebum” value is on record as 26±30% and the “decrease of pro-inflammatory free fatty acids in the sebum” value is recorded as 22±18%. In series [1] (p<0.05), the “decrease of total lipids in the sebum” value stood at 35±51%. The response of comedones result in series [2] (4×600 mg/d p.o. for three months) is on record as “comedones did not respond”. The “decrease of the number of inflammatory lesions up to” value in series [2] (4×600 mg/d p.o. for three months, p<0.01) came out at 29±24%. Further, the “degree of severity index of acne, % of the initial value” in series [2] (12th week of treatment, 4×600 mg/d p.o., 10 patients, p<0.05) came to 41±28%. The “all examined parameters during follow-up” value in series [2] (two-weeks' follow-up phase after completion of the therapy) is “remained practically unchanged”. For the same compound, in series [3], the “subjective and objective side-effects” value is given as “Neither subjective nor objective side-effects were noticed”. In addition, the surface lipids entry in series [4] is reported as “not influenced”. Besides, the “LTB4 in the blood” value in series [5] is recorded as “not influenced”.

On to `CC(C(=O)O)c1ccc2oc(-c3ccc(Cl)cc3)nc2c1` (centres unmarked) [benoxaprofen], for which, in series [6], the “disadvantageous effects observed in clinical tests” value was “a photosensitivity, exzema, milii, onycholysis and a hepatotoxicity with jaundice”.
